# Experimental data: patent US20240216392A1, “METHODS OF TREAMENT” (Arena Pharmaceuticals, Inc., priority 2022, published 2024)
# Where two headings read alike, the source gives them in different places.
# Tests used:
# [1] = tested on: serum prolactin; test: serum prolactin pharmacodynamics, Phase 1 study; assay type: in vivo, human
# Method: The PD parameters listed in Table 13 were derived for serum prolactin based on actual times and were calculated using noncompartmental analysis (NCA) methods, as data permitted.
# [2] = for CSF AUCtau, geometric mean (geometric CV %) / CSF Cavg, geometric mean (geometric CV %) / CSF Cmax, geometric mean (geometric CV %) / CSF Ctrough, geometric mean (geometric CV %): Day 11
# [3] = clinical; settings: both, human, oral; for Tmax: CSF, CSF Tmax
smiles,measurement,setting,value
"C[C@H]1CN2CCNCc3ccc(C(=O)NCC(F)F)c1c32 [Compound 1, (R)—N-(2,2-difluoroethyl)-7-methyl-1,2,3,4,6,7-hexahydro-[1,4]diazepino[6,7,1-hi]indole-8-carboxamide]","Serum prolactin AUEC, Change From Baseline, geometric mean","[1]; Day 1, Cohort 1 (3 mg doses)",13.2 ng·h/mL
same,"Serum prolactin AUEC, Raw, geometric mean","[1]; Day 1, Cohort 1 (3 mg doses)",95.0 ng·h/mL
same,"Serum prolactin Emax, Change From Baseline, geometric mean","[1]; Day 1, Cohort 1 (3 mg doses)",6.6 ng/mL
same,"Serum prolactin Emax, Raw, geometric mean","[1]; Day 1, Cohort 1 (3 mg doses)",17.8 ng/mL
same,"Serum prolactin Tmax, Raw, median","[1]; Day 1, Cohort 1 (3 mg doses)",7.84 h
same,"Serum prolactin AUEC, Change From Baseline, geometric mean","[1]; Day 1, Cohort 2 (6 mg doses)",16.3 ng·h/mL
same,"Serum prolactin AUEC, Raw, geometric mean","[1]; Day 1, Cohort 2 (6 mg doses)",82.5 ng·h/mL
same,"Serum prolactin Emax, Change From Baseline, geometric mean","[1]; Day 1, Cohort 2 (6 mg doses)",4.4 ng/mL
same,"Serum prolactin Emax, Raw, geometric mean","[1]; Day 1, Cohort 2 (6 mg doses)",13.9 ng/mL
same,"Serum prolactin Tmax, Raw, median","[1]; Day 1, Cohort 2 (6 mg doses)",2.01 h
same,"Serum prolactin AUEC, Change From Baseline, geometric mean","[1]; Day 1, Cohort 3 (6 mg doses)",15.0 ng·h/mL
same,"Serum prolactin AUEC, Raw, geometric mean","[1]; Day 1, Cohort 3 (6 mg doses)",93.6 ng·h/mL
same,"Serum prolactin Emax, Change From Baseline, geometric mean","[1]; Day 1, Cohort 3 (6 mg doses)",5.8 ng/mL
same,"Serum prolactin Emax, Raw, geometric mean","[1]; Day 1, Cohort 3 (6 mg doses)",16.4 ng/mL
same,"Serum prolactin Tmax, Raw, median","[1]; Day 1, Cohort 3 (6 mg doses)",1.56 h
same,"Serum prolactin AUEC, Change From Baseline, geometric mean","[1]; Day 1, Cohort 4A (6 mg doses)",12.7 ng·h/mL
same,"Serum prolactin AUEC, Raw, geometric mean","[1]; Day 1, Cohort 4A (6 mg doses)",99.6 ng·h/mL
same,"Serum prolactin Emax, Change From Baseline, geometric mean","[1]; Day 1, Cohort 4A (6 mg doses)",9.1 ng/mL
same,"Serum prolactin Emax, Raw, geometric mean","[1]; Day 1, Cohort 4A (6 mg doses)",21.5 ng/mL
same,"Serum prolactin Tmax, Raw, median","[1]; Day 1, Cohort 4A (6 mg doses)",2.01 h
same,"Serum prolactin AUEC, Raw, geometric mean","[1]; Day 1, Cohort 4B (6 mg doses)",80.4 ng·h/mL
same,"Serum prolactin Emax, Change From Baseline, geometric mean","[1]; Day 1, Cohort 4B (6 mg doses)",4.2 ng/mL
same,"Serum prolactin Emax, Raw, geometric mean","[1]; Day 1, Cohort 4B (6 mg doses)",15.6 ng/mL
same,"Serum prolactin Tmax, Raw, median","[1]; Day 1, Cohort 4B (6 mg doses)",0.48 h
same,"Serum prolactin AUEC, Change From Baseline, geometric mean","[1]; Day 10, Cohort 1 (6 mg TID)",20.7 ng·h/mL
same,"Serum prolactin AUEC, Raw, geometric mean","[1]; Day 10, Cohort 1 (6 mg TID)",92.4 ng·h/mL
same,"Serum prolactin Emax, Change From Baseline, geometric mean","[1]; Day 10, Cohort 1 (6 mg TID)",6.0 ng/mL
same,"Serum prolactin Emax, Raw, geometric mean","[1]; Day 10, Cohort 1 (6 mg TID)",16.2 ng/mL
same,"Serum prolactin Tmax, Raw, median","[1]; Day 10, Cohort 1 (6 mg TID)",3.00 h
same,"Serum prolactin AUEC, Change From Baseline, geometric mean","[1]; Day 10, Cohort 2 (12 mg TID)",14.4 ng·h/mL
same,"Serum prolactin AUEC, Raw, geometric mean","[1]; Day 10, Cohort 2 (12 mg TID)",92.0 ng·h/mL
same,"Serum prolactin Emax, Change From Baseline, geometric mean","[1]; Day 10, Cohort 2 (12 mg TID)",5.8 ng/mL
same,"Serum prolactin Emax, Raw, geometric mean","[1]; Day 10, Cohort 2 (12 mg TID)",16.0 ng/mL
same,"Serum prolactin Tmax, Raw, median","[1]; Day 10, Cohort 2 (12 mg TID)",7.84 h
same,"Serum prolactin AUEC, Change From Baseline, geometric mean","[1]; Day 10, Cohort 3 (12 mg BID)",13.5 ng·h/mL
same,"Serum prolactin AUEC, Raw, geometric mean","[1]; Day 10, Cohort 3 (12 mg BID)",99.9 ng·h/mL
same,"Serum prolactin Emax, Change From Baseline, geometric mean","[1]; Day 10, Cohort 3 (12 mg BID)",7.2 ng/mL
same,"Serum prolactin Emax, Raw, geometric mean","[1]; Day 10, Cohort 3 (12 mg BID)",18.2 ng/mL
same,"Serum prolactin Tmax, Raw, median","[1]; Day 10, Cohort 3 (12 mg BID)",1.01 h
same,"Serum prolactin AUEC, Raw, geometric mean","[1]; Day 10, Cohort 4A (15 mg BID)",84.3 ng·h/mL
same,"Serum prolactin Emax, Change From Baseline, geometric mean","[1]; Day 10, Cohort 4A (15 mg BID)",4.7 ng/mL
same,"Serum prolactin Emax, Raw, geometric mean","[1]; Day 10, Cohort 4A (15 mg BID)",14.7 ng/mL
same,"Serum prolactin Tmax, Raw, median","[1]; Day 10, Cohort 4A (15 mg BID)",2.00 h
same,"Serum prolactin AUEC, Change From Baseline, geometric mean","[1]; Day 10, Cohort 4B (18 mg BID)",17.8 ng·h/mL
same,"Serum prolactin AUEC, Raw, geometric mean","[1]; Day 10, Cohort 4B (18 mg BID)",99.4 ng·h/mL
same,"Serum prolactin Emax, Change From Baseline, geometric mean","[1]; Day 10, Cohort 4B (18 mg BID)",8.1 ng/mL
same,"Serum prolactin Emax, Raw, geometric mean","[1]; Day 10, Cohort 4B (18 mg BID)",16.7 ng/mL
same,"Serum prolactin Tmax, Raw, median","[1]; Day 10, Cohort 4B (18 mg BID)",1.10 h
same,CSF concentrations exceeding the relevant Ki for 5-HT2C agonism,[2]; Cohort 2 (12 mg TID) and Cohort 4B (18 mg BID),~2 fold
same,"CSF AUCtau, geometric mean (geometric CV %)",[2]; Cohort 1 (6 mg TID),72.07 (25.7) h*ng/mL
same,"CSF Cavg, geometric mean (geometric CV %)",[2]; Cohort 1 (6 mg TID),9.261 (2.2660) ng/mL
same,"CSF Cmax, geometric mean (geometric CV %)",[2]; Cohort 1 (6 mg TID),11.88 (28.1) ng/mL
same,"CSF Ctrough, geometric mean (geometric CV %)",[2]; Cohort 1 (6 mg TID),6.524 (1.8619) ng/mL
same,"CSF AUCtau, geometric mean (geometric CV %)",[2]; Cohort 2 (12 mg TID),167.4 (60.3) h*ng/mL
same,"CSF Cavg, geometric mean (geometric CV %)",[2]; Cohort 2 (12 mg TID),24.61 (18.535) ng/mL
same,"CSF Cmax, geometric mean (geometric CV %)",[2]; Cohort 2 (12 mg TID),26.21 (57.4) ng/mL
same,"CSF Ctrough, geometric mean (geometric CV %)",[2]; Cohort 2 (12 mg TID),18.69 (12.398) ng/mL
same,"CSF AUCtau, geometric mean (geometric CV %)",[2]; Cohort 3 (12 mg BID),157.9 (34.0) h*ng/mL
same,"CSF Cavg, geometric mean (geometric CV %)",[2]; Cohort 3 (12 mg BID),13.76 (4.0021) ng/mL
same,"CSF Cmax, geometric mean (geometric CV %)",[2]; Cohort 3 (12 mg BID),21.34 (33.5) ng/mL
same,"CSF Ctrough, geometric mean (geometric CV %)",[2]; Cohort 3 (12 mg BID),7.027 (3.2364) ng/mL
same,"CSF AUCtau, geometric mean (geometric CV %)",[2]; Cohort 4A (15 mg BID),171.2 (25.4) h*ng/mL
same,"CSF Cavg, geometric mean (geometric CV %)",[2]; Cohort 4A (15 mg BID),14.63 (3.7448) ng/mL
same,"CSF Cmax, geometric mean (geometric CV %)",[2]; Cohort 4A (15 mg BID),24.27 (32.3) ng/mL
same,"CSF Ctrough, geometric mean (geometric CV %)",[2]; Cohort 4A (15 mg BID),6.512 (1.3508) ng/mL
same,"CSF AUCtau, geometric mean (geometric CV %)",[2]; Cohort 4B (18 mg BID),202.5 (30.1) h*ng/mL
same,"CSF Cavg, geometric mean (geometric CV %)",[2]; Cohort 4B (18 mg BID),17.51 (5.7327) ng/mL
same,"CSF Cmax, geometric mean (geometric CV %)",[2]; Cohort 4B (18 mg BID),30.05 (20.9) ng/mL
same,"CSF Ctrough, geometric mean (geometric CV %)",[2]; Cohort 4B (18 mg BID),7.700 (3.5802) ng/mL
same,Kp,"[3]; CSF / free (unbound) plasma, CSF/P Cmax ratio, across all cohorts",0.663 to 0.764
same,Kp,"[3]; CSF / free (unbound) plasma, CSF/P Ctrough ratio, across all cohorts",1.26 to 1.92
same,Kp,"[3]; CSF / free drug in plasma, 6 mg, CSF/P Ctrough, mean (SD), CSF to free drug plasma ratio, Day 11, Cohort 1 (6 mg TID)",1.26
same,Kp,"[3]; CSF / free drug in plasma, 12 mg, CSF/P Ctrough, mean (SD), CSF to free drug plasma ratio, Day 11, Cohort 2 (12 mg TID)",1.31
same,Kp,"[3]; CSF / free drug in plasma, 12 mg, CSF/P Ctrough, mean (SD), CSF to free drug plasma ratio, Day 11, Cohort 3 (12 mg BID)",1.92
same,Kp,"[3]; CSF / free drug in plasma, 15 mg, CSF/P Ctrough, mean (SD), CSF to free drug plasma ratio, Day 11, Cohort 4A (15 mg BID)",1.48
same,Kp,"[3]; CSF / free drug in plasma, 18 mg, CSF/P Ctrough, mean (SD), CSF to free drug plasma ratio, Day 11, Cohort 4B (18 mg BID)",1.69
same,Tmax,"[3]; 6 mg, median (minimum, maximum), Day 11, Cohort 1 (6 mg TID)",2.52 h
same,Tmax,"[3]; 12 mg, median (minimum, maximum), Day 11, Cohort 2 (12 mg TID)",3.04 h
same,Tmax,"[3]; 12 mg, median (minimum, maximum), Day 11, Cohort 3 (12 mg BID)",2.53 h
same,Tmax,"[3]; 15 mg, median (minimum, maximum), Day 11, Cohort 4A (15 mg BID)",3.02 h
same,Tmax,"[3]; 18 mg, median (minimum, maximum), Day 11, Cohort 4B (18 mg BID)",3.06 h
same,Tmax,"[3]; Day 11, across cohorts",2.52 to 3.06 h
